We go through nine molecules from patent US4628089A, “Pyrido(2,3-D)pyrimidines” (Southern Research Institute, priority 1985, dated 1986).

Assay [1] concerns lymphocytic leukemia P388. The experiment in a line: Activity against lymphocytic leukemia P388 in mice. It is filed as in vivo, mouse (CDF1 mice). The settings on record: ip, qd 1-5 days, 10^6 P388 cells ip, CDF1 mice.
Assay [2] relates to Human epidermoid carcinoma cell No. 2. Description: Cell culture cytotoxicity, inhibition of colony formation after 12 days. The assay is classed as cell-based. To be noted: 288 h, colony formation after 12 days in plastic flask, read-out: ED50 (concentration inhibiting colony formation by 50%).
Description: ^a Human epidermoid carcinoma cell No. 2.
^c Concentrations inhibiting colony formation by 50% after 12 days as
determined in plastic flask.
In another assay the test system is thymidylate synthetase. The settings on record: background; cited from earlier work.
The subject of another assay is dihydrofolate reductase. To be noted: background; cited from earlier work.
The subject of a further assay is hypertensive rat. The settings on record: L. R. Bennett et al, J. Med. Chem., 24, 382 (1981); cited from earlier work.
For assay [3], the system named is mammalian dihydrofolate reductase. To be noted: Grivsky et al., J. Med. Chem., 23, 327 (1980); cited from earlier work.

With `CCOC(=O)CC[C@H](NC(=O)c1ccc(NCc2cnc3nc(N)nc(N)c3c2)cc1)C(=O)OCC` [VII (R = H; R1 = C2 H5), Diethyl N-[4-[(2,4-diaminopyrido[2,3-d]pyrimidine-6-yl)methylamino]benzoyl]-L-glutamate], in assay [1] (1 mg/kg), the “% ILS” value was 118%. Also, the IC50 in assay [2] is 52 nM.
For `CN(Cc1cnc2nc(N)nc(N)c2c1)c1ccc(C(=O)N[C@@H](CCC(=O)O)C(=O)O)cc1` [II (R = CH3), N-[4-[[(2,4-Diaminopyrido[2,3-d]pyrimidine-6-yl)methyl]methylamino]benzoyl]-L-glutamic acid], in assay [1] (4 mg/kg), the 30th day survivor result is “One” and the “% ILS” value was 92%. Also, the IC50 in assay [2] was found to be 4 nM.
Regarding `C#CCN(Cc1ccc2nc(N)nc(O)c2c1)c1ccc(C(=O)N[C@@H](CCC(=O)O)C(=O)O)cc1` [5,8-dideaza-10-propargylfolic acid, N-[4-[N-[(2-amino-4-hydroxy-6-quinazolinyl)methyl]prop-2-ynylamino]benzoyl]-L-glutamic acid], in the assay on thymidylate synthetase, the “inhibition of thymidylate synthetase” value is “potent inhibitor of thymidylate synthetase”.
As for `CN(Cc1cnc2nc(N)nc(N)c2n1)c1ccc(C(=O)N[C@@H](CCC(=O)O)C(=O)O)cc1` [Methotrexate, reference compound], in the assay with dihydrofolate reductase, the “inhibition of dihydrofolate reductase” value is “Powerful dihydrofolate reductase inhibitors”. For the same molecule, the IC50 in assay [2] was found to be 1 nM.
For `Cc1ncc2cc(-c3c(Cl)cccc3Cl)c(N)nc2n1`, the “blood pressure in the hypertensive rat” value with hypertensive rat is “lowered blood pressure”.
Consider `COc1ccc(OC)c(Cc2cnc3nc(N)nc(N)c3c2C)c1`, for which the “inhibition of mammalian dihydrofolate reductase” value in assay [3] is listed as “potent lipid-soluble inhibitor of mammalian dihydrofolate reductase”.
As for `CN(Cc1cnc2nc(N)[nH]c(=O)c2c1)c1ccc(C(=O)N[C@@H](CCC(=O)O)C(=O)O)cc1` [I (R = CH3), N-[4[[(2-amino-4(3H)-oxopyrido[2,3-d]-pyrimidin-6-yl)methyl]methylamino]benzoyl]-L-glutamic acid], in assay [1] (200 mg/kg), the “% ILS” value turned out to be 11%. Besides, in assay [2], the IC50 was determined as 11200 nM.
For `Nc1nc2ncc(CNc3ccc(C(=O)N[C@@H](CCC(=O)O)C(=O)O)cc3)cc2c(=O)[nH]1` [I (R = H), N-[4-[(2-Amino-4(3H)-oxopyrido[2,3-d]pyrimidin-6-yl)methylamino]benzoyl]-L-glutamic Acid], the “% ILS” value in assay [1] (100 mg/kg) was found to be 17%. In addition, the IC50 in assay [2] was found to be 6100 nM.
As for `Nc1nc(N)c2cc(CNc3ccc(C(=O)N[C@@H](CCC(=O)O)C(=O)O)cc3)cnc2n1` [II (R = H), N-[4-[(2,4-Diaminopyrido[2,3-d]pyrimidine-6-yl)methylamino]benzoyl]-L-glutamic acid], in assay [2], the IC50 was 13 nM.
